These compounds were tested against T1, Pfs16 (Plasmodium falciparum, UniProt Q6ZMA7) (assay: photoaffinity labelling, click capture, pulldown, TMT nLC-MS/MS, in-gel fluorescence and immunoblot). Details: live stage V gametocytes, 2.5-10 uM, 254 nm UV; covalent after irradiation.
T1 construct: native full-length protein in stage V gametocytes or their Triton X-100 lysate; 157 residues, 16 kDa, two transmembrane domains
T1 sequence (Q6ZMA7 26-157): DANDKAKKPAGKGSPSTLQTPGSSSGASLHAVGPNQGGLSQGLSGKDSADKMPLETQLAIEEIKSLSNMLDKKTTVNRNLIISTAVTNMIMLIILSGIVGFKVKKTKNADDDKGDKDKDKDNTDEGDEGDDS
Format: cell-based

`C#Cc1ccc2c(c1)C(O)(CNS(=O)(=O)c1cccc(N=[N+]=[N-])c1)CCO2` (stereo not shown) [compound 2, probe 2] was tested, and the “photoaffinity labelling, click capture, pulldown, TMT nLC-MS/MS, in-gel fluoresc” value was “a dose-dependent pulldown of Pfs16 was clearly observed”.

The compounds below were run on T2, P. falciparum NF54 stage V male gametocytes (assay: microbe, parasite or virus in culture). Details: Plasmodium falciparum, NF54, male gamete formation.
T2 construct: NF54
Parameters: male gamete formation assay (DGFA format), inhibition of exflagellation of stage V gametocytes
Source text: Yahiya et al. 2021 Supplement Page 26 of 27 345 IC50 determination by male gamete formation assay 346 The male gamete formation assay (MGFA) was adapted from the previously described dual gamete formation assay (DGFA)3 347 to identify male gamete targeted activity. Briefly, compounds 348 were dispensed into 384-well plates using the HP D300 Digital Dispenser in serial dilutions. Single 349 point controls, a DMSO negative control (0.25% final assay volume) and 20 µM DDD01028076 350 positive control, were included across the plate. Maintaining RT, 10 µl ookinete medium was 351 dispensed into each well, followed by addition of 50 µl of stage V NF54 gametocyte culture (day 14 352 post-induction and onwards). […] Plates were then immediately incubated at 4°C 354 for 4 minutes, followed by 28°C for 5 minutes. Table 1. DDD01035881 and derivatives Activity of DDD01035881 and structural analogues as determined in a structure activity relationship study. IC50s depicted represent the inhibition of male gamete viability as determined by the male gamete formation format of the DGFA. Values are expressed as an average ± SEM of 3-8 biological replicates, ≥ 2 technical replicates.[15]

First: O=S(=O)(NCC1(O)CCOc2ccc(Br)cc21)c1cccc(Br)c1 (stereo not shown) [compound 1, parent molecule 1]
Second: O=S(=O)(NCC1(O)CCOc2ccc(O)cc21)c1cccc(Br)c1 (stereo not shown) [compound 6, 6]
The IC50 of the first is lower: 0.785 ± 0.048 µM for the first, over 11 µM for the second.

First: CCCCn1cc(-c2ccc3c(c2)C(O)(CNS(=O)(=O)c2cccc(Br)c2)CCO3)nn1 (stereo not shown) [compound 9, 9]
Second: C#Cc1ccc2c(c1)C(O)(CNS(=O)(=O)c1cccc(Br)c1)CCO2 (stereo not shown) [compound 3, 3]
The IC50 of the first is higher: over 25 µM for the first, 0.37 ± 0.079 µM for the second.

Compared with `C=CCOc1ccc2c(c1)C(O)(CNS(=O)(=O)c1cccc(Br)c1)CCO2` (stereo not shown) [compound 7, 7], `C#Cc1ccc2c(c1)C(O)(CNS(=O)(=O)c1cccc(N=[N+]=[N-])c1)CCO2` (stereo not shown) [compound 2, probe 2] is lower in IC50: over 25 µM for the first, 3.98 ± 0.211 µM for the second.

Compared with `C#Cc1cccc(S(=O)(=O)NCC2(O)CCOc3ccccc32)c1` (stereo not shown) [compound 4, 4], `O=S(=O)(NCC1(O)CCOc2ccccc21)c1ccccc1Br` (stereo not shown) [DDD01028076] is lower in IC50: over 1 µM for the first, 0.367 ± 0.06 µM for the second. The second is the more potent here.

`C#Cc1ccc2c(c1)C(O)(CN(CCC1(C)N=N1)S(=O)(=O)c1cccc(Br)c1)CCO2` (stereo not shown) [compound 5, 5] and `CN(CC1(O)CCOc2ccccc21)S(=O)(=O)c1cccc(Br)c1` (stereo not shown) [compound 10, 10] cannot be ordered by IC50: over 25 µM for the first, over 10 µM for the second.

In the case of `O=S(=O)(NCC1(O)CCOc2ccccc21)c1ccc(Br)s1` (stereo not shown) [DDD01035881], the IC50 is reported as 0.292 ± 0.076 µM.

Each compound was assayed against T1, Pfs16 (assay: CETSA melt curve with immunoblot). Details: activated stage V gametocyte lysate, 100 uM compound, 1% Triton X-100, pH 7.5; also isothermal dose response at 78.4 °C.
Format: biochemical

`O=S(=O)(NCC1(O)CCOc2ccccc21)c1ccc(Br)s1` (stereo not shown) [DDD01035881] was tested, and the Tm shift was “DDD01035881 treatment clearly resulted in a positive shift in the Pfs16 melting curve”.
